This note sets out measurements from patent US10173971B2, “Picolinamides with fungicidal activity” (DOW AGROSCIENCES LLC, priority 2014, dated 2019).

Where two headings read alike, the source gives them in different places.

One experiment has as its system Zymoseptoria tritici. In words: Fungicidal activity: leaf blotch of wheat (SEPTTR), wheat seedlings, booth sprayer to run-off or track spray. The experiment is classed as in vivo. To be noted: Low-Volume Cereal Activity at 121.5 g/H.
The next experiment concerns Puccinia triticina. In words: Fungicidal activity: wheat brown rust (PUCCRT), wheat seedlings, booth sprayer to run-off or track spray. The experiment is classed as in vivo. To be noted: Low-Volume Cereal Activity at 121.5 g/H.
Setting [1] is: 24 h, 1 Day Protectant, read-out: SEPTTR 1DP.
Setting [2] is: 72 h, 3 Day Curative, read-out: SEPTTR 3DC.
The mark [3] stands for this setting: 24 h, 1 Day Protectant, read-out: PUCCRT 1DP.
Setting [4] is: 72 h, 3 Day Curative, read-out: PUCCRT 3DC.

On to `COc1ccnc(C(=O)N[C@@H](C)C(=O)O[C@@H](C)[C@H](Cc2ccc(Cl)cc2)c2ccccc2)c1OCOC(C)=O` [compound 203], for which the pest or weed control at 121.5 g/ha with Zymoseptoria tritici (setting [1]) was 80 to 100%; in the experiment on Zymoseptoria tritici (setting [2]), 80 to 100%; in the experiment on Puccinia triticina (setting [3]) it was 80 to 100%; with Puccinia triticina (setting [4]) it was 0 to 80%.

Take `COc1ccnc(C(=O)N[C@@H](C)C(=O)O[C@@H](C)[C@H](Cc2ccc(Cl)cc2)c2ccccc2)c1OCOC(=O)C(C)C` [compound 204]: the pest or weed control at 121.5 g/ha with Zymoseptoria tritici (setting [1]) was in the range of 80 to 100%; in the experiment with Zymoseptoria tritici (setting [2]), 80 to 100%; with Puccinia triticina (setting [3]) it was 0 to 80%; in the experiment with Puccinia triticina (setting [4]), 0 to 80%.

`COc1ccnc(C(=O)N[C@@H](C)C(=O)O[C@@H](C)[C@H](Cc2ccccc2)C(C)C)c1OC(C)=O` [compound 205]: the pest or weed control at 121.5 g/ha in the experiment on Zymoseptoria tritici (setting [1]), in the experiment with Zymoseptoria tritici (setting [2]), with Puccinia triticina (setting [3]) and with Puccinia triticina (setting [4]) was 80 to 100% each time.

With `COc1ccnc(C(=O)N[C@@H](C)C(=O)O[C@@H](C)[C@H](Cc2ccccc2)C(C)C)c1OCOC(C)=O` [compound 206], the pest or weed control at 121.5 g/ha in the experiment on Zymoseptoria tritici (setting [1]), in the experiment on Zymoseptoria tritici (setting [2]), in the experiment on Puccinia triticina (setting [3]) and with Puccinia triticina (setting [4]) was 80 to 100% in each case.

In the case of `CCCOC(C)(C)[C@@H](Cc1ccccc1)[C@H](C)OC(=O)[C@H](C)NC(=O)c1nccc(OC)c1OCOC(C)=O` [compound 207], the pest or weed control at 121.5 g/ha with Zymoseptoria tritici (setting [1]), in the experiment on Zymoseptoria tritici (setting [2]), with Puccinia triticina (setting [3]) and with Puccinia triticina (setting [4]) was 80 to 100% each time.

With `COc1ccnc(C(=O)N[C@@H](C)C(=O)O[C@@H](C)[C@@H](COc2ccccc2)Cc2ccccc2)c1OCOC(C)=O` [compound 208], the pest or weed control at 121.5 g/ha with Zymoseptoria tritici (setting [1]) lay within 80 to 100%; in the experiment with Zymoseptoria tritici (setting [2]), 0 to 80%; in the experiment on Puccinia triticina (setting [3]), 80 to 100%; in the experiment on Puccinia triticina (setting [4]) it was 0 to 80%.

For the compound `COc1ccnc(C(=O)N[C@@H](C)C(=O)O[C@@H](C)[C@@H](COc2ccc(Cl)cc2Cl)Cc2ccccc2)c1OCOC(C)=O` [compound 209], the pest or weed control at 121.5 g/ha with Zymoseptoria tritici (setting [1]), in the experiment with Zymoseptoria tritici (setting [2]) and in the experiment on Puccinia triticina (setting [3]) was 0 to 80% throughout.

Regarding `COc1ccnc(C(=O)N[C@@H](C)C(=O)O[C@@H](C)[C@H](CCC(C)C)c2ccccc2)c1OC(C)=O` [compound 210], the pest or weed control at 121.5 g/ha in the experiment with Zymoseptoria tritici (setting [1]) fell in the range of 80 to 100%; in the experiment with Zymoseptoria tritici (setting [2]), 80 to 100%; with Puccinia triticina (setting [3]), 80 to 100%; in the experiment with Puccinia triticina (setting [4]) it was 0 to 80%.

Take `COc1ccnc(C(=O)N[C@@H](C)C(=O)O[C@@H](C)[C@H](CCC(C)C)c2ccccc2)c1OC(=O)C(C)C` [compound 211]: the pest or weed control at 121.5 g/ha in the experiment with Zymoseptoria tritici (setting [1]) is 80 to 100%; in the experiment with Zymoseptoria tritici (setting [2]), 80 to 100%; in the experiment with Puccinia triticina (setting [3]) it was 0 to 80%.

Consider `COCCC(=O)Oc1c(OC)ccnc1C(=O)N[C@@H](C)C(=O)O[C@@H](C)[C@H](CCC(C)C)c1ccccc1` [compound 212], for which the pest or weed control at 121.5 g/ha in the experiment with Zymoseptoria tritici (setting [1]), with Zymoseptoria tritici (setting [2]), with Puccinia triticina (setting [3]) and in the experiment on Puccinia triticina (setting [4]) was 80 to 100% in each case.

On to `COc1ccnc(C(=O)N[C@@H](C)C(=O)O[C@@H](C)[C@H](CCC(C)C)c2ccccc2)c1OCOC(C)=O` [compound 213], for which the pest or weed control at 121.5 g/ha in the experiment with Zymoseptoria tritici (setting [1]), in the experiment with Zymoseptoria tritici (setting [2]), in the experiment on Puccinia triticina (setting [3]) and with Puccinia triticina (setting [4]) was 80 to 100% throughout.

In the case of `COc1ccnc(C(=O)N[C@@H](C)C(=O)O[C@@H](C)[C@H](CCC(C)C)c2ccccc2)c1OCOC(=O)C(C)C` [compound 214], the pest or weed control at 121.5 g/ha in the experiment on Zymoseptoria tritici (setting [1]), in the experiment with Zymoseptoria tritici (setting [2]), in the experiment with Puccinia triticina (setting [3]) and in the experiment on Puccinia triticina (setting [4]) was 80 to 100% in each case.

In the case of `CCOCC(=O)OCOc1c(OC)ccnc1C(=O)N[C@@H](C)C(=O)O[C@@H](C)[C@H](CCC(C)C)c1ccccc1` [compound 215], the pest or weed control at 121.5 g/ha with Zymoseptoria tritici (setting [1]), with Zymoseptoria tritici (setting [2]), in the experiment on Puccinia triticina (setting [3]) and in the experiment on Puccinia triticina (setting [4]) was 80 to 100% in each case.

On to `COc1ccnc(C(=O)N[C@@H](C)C(=O)O[C@@H](C)[C@H](Cc2ccc(Cl)c(Cl)c2)c2ccccc2)c1OC(C)=O` [compound 216], for which the pest or weed control at 121.5 g/ha in the experiment with Zymoseptoria tritici (setting [1]) was 80 to 100%; in the experiment with Zymoseptoria tritici (setting [2]) it was 0 to 80%; with Puccinia triticina (setting [3]), 0 to 80%; in the experiment on Puccinia triticina (setting [4]) it was 0 to 80%.

With `COc1ccnc(C(=O)N[C@@H](C)C(=O)O[C@@H](C)[C@H](Cc2ccc(Cl)c(Cl)c2)c2ccccc2)c1OCOC(C)=O` [compound 218], the pest or weed control at 121.5 g/ha with Zymoseptoria tritici (setting [1]) was in the range of 80 to 100%; with Zymoseptoria tritici (setting [2]), 0 to 80%; in the experiment on Puccinia triticina (setting [3]), 0 to 80%; in the experiment with Puccinia triticina (setting [4]), 0 to 80%.

`COc1ccnc(C(=O)N[C@@H](C)C(=O)O[C@@H](C)[C@H](Cc2ccc(Cl)c(Cl)c2)c2ccccc2)c1OCOC(=O)C(C)C` [compound 219]: the pest or weed control at 121.5 g/ha in the experiment on Zymoseptoria tritici (setting [1]), in the experiment with Zymoseptoria tritici (setting [2]), in the experiment with Puccinia triticina (setting [3]) and in the experiment with Puccinia triticina (setting [4]) was 0 to 80% throughout.

`COc1ccnc(C(=O)N[C@@H](C)C(=O)O[C@@H](C)[C@H](Cc2ccc(C)cc2)c2ccccc2)c1OC(C)=O` [compound 220]: the pest or weed control at 121.5 g/ha in the experiment on Zymoseptoria tritici (setting [1]) lay within 80 to 100%; in the experiment on Zymoseptoria tritici (setting [2]), 80 to 100%; with Puccinia triticina (setting [3]) it was 0 to 80%; in the experiment with Puccinia triticina (setting [4]), 0 to 80%.

Regarding `COc1ccnc(C(=O)N[C@@H](C)C(=O)O[C@@H](C)[C@H](Cc2ccc(C)cc2)c2ccccc2)c1OCOC(C)=O` [compound 221], the pest or weed control at 121.5 g/ha was in the range of 80 to 100% with Zymoseptoria tritici (setting [1]), 80 to 100% in the experiment on Zymoseptoria tritici (setting [2]), 80 to 100% with Puccinia triticina (setting [3]) and 0 to 80% with Puccinia triticina (setting [4]).

With `COc1ccnc(C(=O)N[C@@H](C)C(=O)O[C@@H](C)[C@H](Cc2ccc(F)cc2)c2ccccc2)c1OCOC(C)=O` [compound 222], the pest or weed control at 121.5 g/ha in the experiment with Zymoseptoria tritici (setting [1]), in the experiment on Zymoseptoria tritici (setting [2]) and in the experiment on Puccinia triticina (setting [3]) was 80 to 100% each time.

With `COc1ccnc(C(=O)N[C@@H](C)C(=O)O[C@@H](C)[C@H](Cc2ccc(F)cc2)c2ccccc2)c1OCOC(=O)C(C)C` [compound 223], the pest or weed control at 121.5 g/ha lay within 80 to 100% with Zymoseptoria tritici (setting [1]), 80 to 100% in the experiment on Zymoseptoria tritici (setting [2]), 80 to 100% in the experiment on Puccinia triticina (setting [3]) and 0 to 80% in the experiment on Puccinia triticina (setting [4]).

Regarding `COc1ccnc(C(=O)N[C@@H](C)C(=O)O[C@@H](C)[C@H](Cc2ccc3ccccc3c2)c2ccccc2)c1OC(C)=O` [compound 224], the pest or weed control at 121.5 g/ha in the experiment on Zymoseptoria tritici (setting [1]), in the experiment with Zymoseptoria tritici (setting [2]) and with Puccinia triticina (setting [3]) was 0 to 80% in each case.

Turning to `COc1ccnc(C(=O)N[C@@H](C)C(=O)O[C@@H](C)[C@H](Cc2ccc3ccccc3c2)c2ccccc2)c1OCOC(C)=O` [compound 225], the pest or weed control at 121.5 g/ha in the experiment on Zymoseptoria tritici (setting [1]), with Zymoseptoria tritici (setting [2]), in the experiment with Puccinia triticina (setting [3]) and in the experiment on Puccinia triticina (setting [4]) was 0 to 80% in each case.

As for `COc1ccnc(C(=O)N[C@@H](C)C(=O)O[C@@H](C)[C@H](Cc2ccc3ccccc3c2)c2ccccc2)c1OCOC(=O)C(C)C` [compound 226], the pest or weed control at 121.5 g/ha with Zymoseptoria tritici (setting [1]), in the experiment on Zymoseptoria tritici (setting [2]) and with Puccinia triticina (setting [3]) was 0 to 80% each time.

For `COc1ccnc(C(=O)N[C@@H](C)C(=O)O[C@@H](C)[C@@H](COCc2ccccc2)Cc2ccccc2)c1OC(C)=O` [compound 227], the pest or weed control at 121.5 g/ha in the experiment on Zymoseptoria tritici (setting [1]) lay in the range of 80 to 100%; with Zymoseptoria tritici (setting [2]) it was 0 to 80%; in the experiment with Puccinia triticina (setting [3]), 0 to 80%; with Puccinia triticina (setting [4]), 0 to 80%.

Consider `COc1ccnc(C(=O)N[C@@H](C)C(=O)O[C@@H](C)[C@@H](COCc2ccccc2)Cc2ccc(F)cc2)c1OC(C)=O` [compound 228], for which the pest or weed control at 121.5 g/ha in the experiment with Zymoseptoria tritici (setting [1]) lay within 80 to 100%; in the experiment with Zymoseptoria tritici (setting [2]), 0 to 80%; with Puccinia triticina (setting [3]) it was 0 to 80%; in the experiment with Puccinia triticina (setting [4]), 0 to 80%.

Consider `COc1ccnc(C(=O)N[C@@H](C)C(=O)O[C@@H](C)[C@H](Cc2ccc(F)cc2)C(C)(C)OCc2ccccc2)c1OC(C)=O` [compound 229], for which the results for the pest or weed control at 121.5 g/ha in the experiment on Zymoseptoria tritici (setting [1]), in the experiment on Zymoseptoria tritici (setting [2]) and in the experiment with Puccinia triticina (setting [3]) were 80 to 100%, 0 to 80% and 0 to 80%, respectively.

Turning to `COc1ccnc(C(=O)N[C@@H](C)C(=O)O[C@@H](C)[C@H](Cc2ccccc2)C(C)(C)OCc2ccccc2)c1OC(C)=O` [compound 230], the pest or weed control at 121.5 g/ha in the experiment on Zymoseptoria tritici (setting [1]) was 80 to 100%; in the experiment on Zymoseptoria tritici (setting [2]), 80 to 100%; in the experiment on Puccinia triticina (setting [3]) it was 80 to 100%; with Puccinia triticina (setting [4]), 0 to 80%.

Consider `COC[C@@H](Cc1ccc(F)cc1)[C@H](C)OC(=O)[C@H](C)NC(=O)c1nccc(OC)c1OC(C)=O` [compound 231], for which the pest or weed control at 121.5 g/ha in the experiment on Zymoseptoria tritici (setting [1]), in the experiment on Zymoseptoria tritici (setting [2]), with Puccinia triticina (setting [3]) and in the experiment with Puccinia triticina (setting [4]) was 0 to 80% in each case.

On to `COc1ccnc(C(=O)N[C@@H](C)C(=O)O[C@@H](C)[C@H](Cc2ccc(F)cc2)C(C)(C)OC)c1OC(C)=O` [compound 232], for which the pest or weed control at 121.5 g/ha in the experiment with Zymoseptoria tritici (setting [1]), in the experiment on Zymoseptoria tritici (setting [2]) and in the experiment with Puccinia triticina (setting [3]) was 0 to 80% throughout.

`CCOCC(=O)OCOc1c(OC)ccnc1C(=O)N[C@@H](C)C(=O)O[C@@H](C)[C@@H](COCc1ccccc1)Cc1ccc(F)cc1` [compound 233]: the pest or weed control at 121.5 g/ha in the experiment with Zymoseptoria tritici (setting [1]) fell in the range of 0 to 80%; in the experiment on Zymoseptoria tritici (setting [2]) it was 0 to 80%; in the experiment with Puccinia triticina (setting [3]), 80 to 100%; in the experiment on Puccinia triticina (setting [4]) it was 0 to 80%.
